Reference: BigSolDB 2.1

CC(C)C[C@H](N)C(=O)O
solubility (mole fraction)
Settings | 283.15 K | 288.15 K | 293.15 K | 298.15 K | 303.15 K | 308.15 K | 313.15 K | 318.15 K | 323.15 K | 328.15 K
in 1,4-dioxane | – | 3.61e-05 | 5.3e-05 | 7.25e-05 | 9.39e-05 | 0.000122 | 0.000149 | 0.00019 | 0.000238 | 0.000309
in acetone | 3.16e-05 | 4.52e-05 | 6.31e-05 | 8.39e-05 | 0.00011 | 0.000145 | 0.000179 | 0.000218 | 0.000269 | –
in acetonitrile | 3.87e-05 | 4.44e-05 | 5.02e-05 | 5.71e-05 | 6.68e-05 | 7.59e-05 | 8.6e-05 | 0.000102 | 0.000123 | –
in ethanol | 0.000146 | 0.00015 | 0.000156 | 0.000171 | 0.00019 | 0.000206 | 0.000221 | 0.000286 | 0.00034 | –
in ethyl acetate | 0.000156 | 0.000169 | 0.000197 | 0.000222 | 0.00026 | 0.000303 | 0.000341 | 0.000396 | 0.000449 | –
in isobutanol | 0.000152 | 0.000157 | 0.000162 | 0.000175 | 0.000201 | 0.000228 | 0.000254 | 0.000304 | 0.00035 | –
in isopropanol | 0.000156 | 0.00016 | 0.000173 | 0.000187 | 0.000212 | 0.000254 | 0.000271 | 0.000318 | 0.000368 | –
in methanol | 0.000558 | 0.000588 | 0.000655 | 0.000686 | 0.000744 | 0.000817 | 0.000896 | 0.001 | 0.00118 | –
in methyl acetate | 0.000158 | 0.000162 | 0.000168 | 0.000178 | 0.000192 | 0.000211 | 0.000227 | 0.000254 | 0.000287 | –
in n-butanol | 2.59e-05 | 2.78e-05 | 4.16e-05 | 5.42e-05 | 7.83e-05 | 0.000103 | 0.000129 | 0.000171 | 0.000215 | –
in n-propanol | 9.7e-05 | 0.000107 | 0.000123 | 0.000142 | 0.000163 | 0.000187 | 0.000217 | 0.00026 | 0.000316 | –
in water | 0.00322 | 0.00326 | 0.00331 | 0.00339 | 0.00348 | 0.00358 | 0.00374 | 0.00385 | 0.00404 | –
